Key:
KG-1 = assay: Cell viability, trypan blue exclusion; assay type: cell-based, human; conditions: Homo sapiens, KG-1; 48 h of treatment; read-out: IC50 ± SD, cell viability, KG-1
Experimental: (§1) U-937 (acute myeloid leukemia), RAJI (Burkitt’s lymphoma), PC-3 (prostate cancer), and MDA-MB-231 (breast cancer) cell lines were obtained from the Deutsche Sammlung für Mikroorganismen and Zellkulturen (DSZM, Braunschweig, Germany) and were cultured in RPMI 1640 (Lonza, Verviers, Belgium) complemented with 10% FBS (Lonza, Verviers, Belgium) and 1% antibiotic-antimycotic (Lonza). RPMI1788 (normal B lymphocytes) and KG-1 (acute myeloid leukemia) cell lines were obtained from the American Type Culture Collection (ATCC) and were maintained in RPMI 1640 complemented with 20% FBS and IMDM complemented with 10% FBS, respectively. Cell lines were treated with compounds at the indicated concentrations in the exponential growth phase.
(§2) Proliferation and viability of U-937, KG-1, RAJI, PC-3, MDA-MB-231, RPMI1788, PBMCs, and PHA_PBMCs were assessed by trypan blue exclusion assays at the indicated time points. Nuclear morphology changes associated with apoptosis and necrosis were evaluated by fluorescence microscopy after Hoechst and propidium iodide (PI) staining as previously described.
(§3) IC50 values of compounds against cellular viability were determined by using nonlinear regression fitting curves with GraphPad Prism 8 or CalcuSyn software The t test used for statistical analyses was performed with GraphPad Prism 8. All the tests were one-tailed, and a p value < 0.05 was considered statistically significant.

MDA-MB-231 = assay: Cell viability, trypan blue exclusion; assay type: cell-based, human; conditions: Homo sapiens, MDA-MB-231; 48 h of treatment; read-out: IC50 ± SD, cell viability, MDA-MB-231
Experimental: as §1, §2, §3

PC-3 = assay: Cell viability, trypan blue exclusion; assay type: cell-based, human; conditions: Homo sapiens, PC-3; 48 h of treatment; read-out: IC50 ± SD, cell viability, PC-3
Experimental: as §1, §2, §3

RAJI = assay: Cell viability, trypan blue exclusion; assay type: cell-based, human; conditions: Homo sapiens, Raji; 48 h of treatment; read-out: IC50 ± SD, cell viability, RAJI
Experimental: as §1, §2, §3

[1] = test system: RPMI1788 (normal B lymphocytes); assay: Cell viability, trypan blue exclusion; assay type: cell-based; conditions: Homo sapiens, RPMI-1788; 48 h of treatment; normal cells; read-out: IC50 ± SD, cell viability, RPMI1788
Experimental: as §1, §2
IC50 values of compounds against cellular viability were determined by using nonlinear regression fitting curves with GraphPad Prism 8 or CalcuSyn software The t test used for statistical analyses was performed with GraphPad Prism 8. […]

[2] = test system: PBMCs (non-proliferating, healthy donors); assay: Cell viability, trypan blue exclusion; assay type: cell-based; conditions: Homo sapiens, PBMC, 48 h of treatment, read-out: IC50 ± SD, cell viability, PBMCs
Experimental: Peripheral blood mononuclear cells (PBMCs) from healthy donors were isolated as previously described. Freshly isolated PBMCs were either cultured and treated at 1.10^6 cells/mL (non-proliferating PBMCs) or stimulated with phytohaemoagglutinin (PHA) and interleukin (IL)-2 (called PHA_PBMCs) to induce blastogenesis in T lymphocytes before treatments as previously described. Briefly, freshly isolated PBMCs were seeded at a concentration of 2.10^6 cells/mL in RMPI 1640 supplemented with 1% antibiotic-antimycotic (Lonza, Verviers, Belgium) and 10% human AB serum (Corning, Fisher scientific, Merelbeke, Belgium). After overnight incubation, floating lymphoid cells were collected and seeded at 1.10^6 cells/mL in RMPI 1640 supplemented with 1% antibiotic-antimycotic, 5% FBS, 10% human AB serum, 1 μg/mL PHA (Gentaur, Kampenhout, Belgium), 50 U/mL IL-2 (Roche, Prophac, Luxembourg City, Luxembourg), 1% non-essential amino acids (Invitrogen, Luxembourg), 1% HEPES (Invitrogen, Luxembourg), 1% sodium pyruvate (Invitrogen, Luxembourg), and 0.1% β-mercaptoethanol (Invitrogen, Luxembourg). After 72 h, the cells were seeded at 1.10^6 cells/mL in the same mitogenic growth medium described just above and treated with test compounds.
as §2, §3

[3] = test system: DNMT3A protein level in HCT116 cells; assay: Western blot of DNMT3A protein in HCT116; assay type: cell-based, human; conditions: 24 h; MC3353 effect detectable at 0.1 μM
Excerpt: Cells were lysed in Laemmli buffer; subsequently, the proteins were resolved by sodium dodecyl sulfate-polyacrylamide gel electrophoresis and transferred to a 0.45-μm nitrocellulose membrane (Bio-Rad Laboratories, Hercules, CA). The following primary antibodies were used for immunoblotting: α-E-cadherin (BD Transduction Laboratories, Franklin Lakes, NJ), α-MMP2 (Abcam), α-DNMT3a (Santa Cruz Biotechnologies, Dallas, TX), and α-GAPDH (Millipore Corp., Bedford, MA), used as a loading control. The immune complexes were detected with horseradish peroxidase-conjugated species-specific secondary antiserum (Bio-Rad Laboratories, Milan, Italy) then by enhanced chemiluminescence reaction (Bio-Rad Laboratories, Milan, Italy). Densitometric analysis of protein expression was performed by using the Fiji ImageJ image processing package.
GAPDH was used as a loading control. Blots are representative of two independent experiments

## Cc1cc(Nc2ccc(NC(=O)c3ccc(Nc4ccnc5ccccc45)cc3)cc2)nc(N)n1 [SGI-1027, reference compound]
KG-1
  IC50: 3.6 ± 0.6 µM
MDA-MB-231
  IC50: 8.5 ± 7.2 µM
PC-3
  IC50: 5 ± 0.6 µM
RAJI
  IC50: 7.8 ± 0.7 µM
[1]
  IC50: 6.7 ± 1.3 µM
[2]
  IC50: 18.1 ± 6.8 µM
[3]
  DNMT3A protein expression level (western blot), HCT116: moderate effect on DNMT3A expression level
